These results are taken from patent US20250057928A1, “VACCINE COMPOSITION FOR INDUCING ANTI-IL-23 ANTIBODY” (OSAKA UNIVERSITY, priority 2021, published 2025).

Where no end group is shown, it is not given here.

The test system of one assay is BALB/c mouse. Kind of assay: TNBS-induced mouse colitis model. Type of assay: in vivo. The method, then: AJP001 conjugated peptide (SEQ ID NO: 2) was dissolved in physiological saline, mixed with an equal amount of 1 mg/mL Type-B/K CpG-ODN K3 (GeneDesign, Inc., hereinafter sometimes to be referred to as “CpG”), and subcutaneously administered to BALB/c mouse (female, 6-week-old, N=10) at 1 mg/body 3 times at two-week intervals. At the time point of 6 weeks after the initial administration, TNBS dissolved in 30% ethanol was administered by intestinal infusion at 2 mg/body. With the first administration of TNBS as Day 0, TNBS was administered by intestinal infusion at 3 mg/body on Day 7 to induce colitis. A Normal group and a 30% EtOH group, each without administration of TNBS, a Saline/TNBS group with administration of TNBS but without administration of the peptide, and a CpG/INBS group with administration of only an adjuvant were provided. Body weight was measured on Days 1, 2, 3, 4, 7, 8, 9, and 10, including the day of TNBS administration. After euthanasia by cardiac blood collection under deep anesthesia on Day 10, the obtained serum was measured for the antibody titer (GMT) and binding to mIL-23 by the ELISA method (same method as in Example 1). In addition, large intestinal tissue was collected, the length (cm) of the large intestine was measured, a 2 cm region from the anus was subjected to the measurement of cytokine mRNA expression, and a 2 to 4 cm region was subjected to histopathological examination. As to the expression of cytokine mRNA, the region was bead disrupted under ice-cooling, total RNA was extracted using RNeasy Fibrous Tissue Kit (Qiagen), and then cDNA of the extracted RNA was prepared using High-Capacity cDNA Reverse Transcription Kit ([…]). Using TaqMan Gene Expression Assays (GAPDH: Mm99999915_g1; IL-17A: Mm00439618_m1; IL-17F:Mm00521423_m1; IL-22:Mm01226722_m1; IL-23:Mm00518984_m1; IL-1β:Mm00434228_m1), Ct value was measured using Applied Biosystems 7900HT Fast Real Time PCR System. The mRNA expression level was calculated by the ΔΔCt method and evaluated as a relative value to the normal group. For histopathological examination, the collected large intestine was fixed with 10% neutral formalin, and then a specimen was prepared according to a conventional method and stained with HE. The HE-stained specimen was observed under a microscope, scored for inflammatory cell infiltration (Grade: 0-3), depth of colorectal tissue damage (Grade: 0-3), and range of colorectal mucosal damage (Grade: 0-4), and the total score was calculated.

The test system of assay [1] is recombinant human IL-23 protein (rhIL-23). Kind of assay: Binding of mouse antiserum to rhIL-23, ELISA. To be noted: antiserum of BALB/c mice, 1 mg/body 3 times, no adjuvant; 6 weeks. The method, then:
AJP001 conjugated peptide (SEQ ID NOs: 6-37) was dissolved in physiological saline, mixed with an equal amount of 2% Alhydrogel (invivogen), and this was intradermally administered to BALB/c mice (female, 6-week-old, N=5-6) at 0.5 mg/body 3 times at two-week intervals. Blood was collected before administration and at the time point of 6 weeks after initial administration, and the antibody titer (GMT) to each epitope sequence and binding ability to recombinant human IL-23 protein (rhIL-23) (Peprotech) were measured by the ELISA method (same method as in Example 1). The binding to rhIL-23 was evaluated by a binding ratio to normal serum by calculating the ratio of the absorbance of a well added with normal mouse serum to the absorbance of a well added with antiserum derived from a mouse administered with each AJP001 conjugated peptide (SEQ ID NOs: 6-37). In addition, the neutralization activity of mouse antiserum was evaluated using an action on IL-17 production in rhIL-23 stimulated mouse splenocyte as an index. The spleen of normal BALB/c mouse (female, 5-week-old, N=3) was triturated using a syringe barrel and a cell strainer and washed with and suspended in HBSS (−). Erythrocytes were then removed using ACK Buffer (Thermo fisher scientific), and splenocytes were isolated. The splenocytes were prepared to 2.5×10^6 cells/mL with 10% FBS/1% penicillin/streptomycin/4 ng/mL rmIL-2-containing RPMI1640 medium (culture medium), and seeded in a 96 well plate at 100 μl/well. The antiserum (final concentration 15-fold) of the mice administered with each AJP001 conjugated peptide and rhIL-23 (final concentration 10 ng/ml) were added to the culture medium, reacted at 37° C. for 2 hr, added at 100 μL/well to a 96-well plate seeded with splenocytes, and cultured for 3 days in a 37° C./5% CO2 incubator. An untreated well and a control well to which normal mouse serum and rhIL-23 were added were provided. IL-17A/F in the culture supernatant was measured using Mouse IL-17A/F ELISA kit (R&D systems), the proportion (%) of IL-17 to normal serum was calculated from the IL-17 concentrations of untreated well (A), control well (B), and well (C) to which antiserum of the mice administered with each AJP001 conjugated peptide was added and according to the following formula, and the neutralization activity was evaluated.
AJP001 conjugated peptide (SEQ ID NO: 6) was dissolved in physiological saline and intradermally administered to BALB/c mice (female, 6-week-old, N=6) at 1 mg/body 3 times at two-week intervals, and blood was collected every 2 weeks until 8 weeks. The antibody titer (GMT) of all the collected sera and the binding ability to rhIL-23 of the serum at 6 weeks were measured by the ELISA method. In FIG. 5, “*” means P<0.05.

The next assay concerns BALB/c mice. The experiment in a line: rhIL-23-induced mouse auricle inflammation model. It is filed as in vivo. The conditions noted are these: 1 mg/body 3 times. On the procedure:
AJP001 conjugated peptide (SEQ ID NO: 6) was dissolved in physiological saline and administered to BALB/c mice (female, 6-week-old, N=8) at 1 mg/body 3 times at two-week intervals. At the time point of 6 weeks after the initial administration, rhIL-23 was administered intradermally to the ear to induce inflammation. rhIL-23 was administered every day and 4 times in total. As a control group, an rhIL-23 group without administration of AJP001 conjugated peptide was provided. Auricular thickness was measured using a thickness gauge at the time points of 3 days and 4 days after rhIL-23 administration. In addition, the mRNA expression of IL-17A, IL-22, IL-1β, LCN-2, and CXCL-2 in the auricle was measured. The results of efficacy evaluation of the AJP001 conjugated peptide (SEQ ID NO: 6) on auricular thickness and mRNA expression are shown in FIG. 6. In FIG. 6, “*” means that it is significant (P<0.05) compared with “rhIL-23”. “#” means that it is significant (P<0.05) compared with “Normal (normal group)”.

As for “SEQ ID NO 2: AJP001-Ahx-B cell epitope peptide conjugate; epitope SSSQQWQR (mouse 152-159) (not fully specified (N-terminus); listed as Mus musculus)”, the “shortened large intestine length” value in the assay on BALB/c mouse (1 mg/body with CpG 3 times, Day 10) is recorded as “suppressive action”. The “inflammatory changes in large intestine tissues” value with BALB/c mouse (1 mg/body with CpG 3 times, Day 10, HE) was “suppressive action”. The “mRNA expression of IL-17A, IL-22, and IL-1β in tissues” value in the assay on BALB/c mouse (1 mg/body with CpG 3 times, Day 10, large intestinal tissue) is “suppressive action”. Besides, the body weight loss entry in the assay with BALB/c mouse (BALB/c mice, 1 mg/body subcutaneous with CpG-ODN K3, 3 times, TNBS Day 0 and Day 7, vs Saline/TNBS or CpG/TNBS) is “suppressive action”.

On to “SEQ ID NO 6: AJP001-Ahx-B cell epitope peptide conjugate; epitope SPSQPWQR (human 151-158) (not fully specified (N-terminus); listed as Homo sapiens)”, for which the “binding ability to rhIL-23” value in assay [1] is given as “confirmed”. Also, the “mRNA expression of IL-17A, IL-22, IL-1β, LCN-2, and CXCL-2 in auricle” value with BALB/c mice (rhIL-23 to ear) is given as “suppressive action”. In addition, the “increase in auricular thickness” value in the assay on BALB/c mice (rhIL-23 to ear daily 4 times from week 6, day 3 and 4) is “suppressive action”.
